The values that follow come from PMC12365235, “Molecular mechanisms of thiazide-like diuretics-mediated inhibition of the human Na-Cl cotransporter” (Nature Communications, 2025).

The target of the assay is T1, hNCC(N149A) (Homo sapiens, UniProt P55017, N149A).
T1 construct: expressed in transfected cells
T1 sequence (P55017 1-1021 N149A): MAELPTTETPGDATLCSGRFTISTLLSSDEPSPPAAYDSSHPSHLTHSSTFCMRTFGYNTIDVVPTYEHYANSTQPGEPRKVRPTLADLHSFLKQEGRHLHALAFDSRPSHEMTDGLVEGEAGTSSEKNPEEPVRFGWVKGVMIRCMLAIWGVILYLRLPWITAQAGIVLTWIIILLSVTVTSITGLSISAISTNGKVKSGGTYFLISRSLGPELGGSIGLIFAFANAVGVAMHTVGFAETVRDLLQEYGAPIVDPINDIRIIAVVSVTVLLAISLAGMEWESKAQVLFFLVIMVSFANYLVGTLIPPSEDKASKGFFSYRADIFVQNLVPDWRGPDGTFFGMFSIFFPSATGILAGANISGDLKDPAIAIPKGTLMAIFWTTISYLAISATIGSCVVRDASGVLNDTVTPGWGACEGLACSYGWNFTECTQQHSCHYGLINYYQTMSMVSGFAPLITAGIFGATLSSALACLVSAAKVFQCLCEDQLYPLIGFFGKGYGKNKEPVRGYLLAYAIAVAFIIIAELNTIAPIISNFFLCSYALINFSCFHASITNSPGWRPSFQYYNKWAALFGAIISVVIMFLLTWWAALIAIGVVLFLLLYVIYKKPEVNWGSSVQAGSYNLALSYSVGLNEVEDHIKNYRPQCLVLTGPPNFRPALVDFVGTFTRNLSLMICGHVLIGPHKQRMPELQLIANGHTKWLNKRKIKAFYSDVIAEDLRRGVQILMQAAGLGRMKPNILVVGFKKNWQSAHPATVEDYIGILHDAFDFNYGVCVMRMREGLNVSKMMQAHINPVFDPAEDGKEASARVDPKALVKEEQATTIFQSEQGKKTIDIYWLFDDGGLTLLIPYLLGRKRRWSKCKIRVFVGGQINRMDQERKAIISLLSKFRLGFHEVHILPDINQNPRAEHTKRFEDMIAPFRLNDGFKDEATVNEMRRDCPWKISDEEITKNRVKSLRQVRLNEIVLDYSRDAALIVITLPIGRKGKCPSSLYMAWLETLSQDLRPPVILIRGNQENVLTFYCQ
As to the kind of experiment: 125I- uptake assay, hNCC(N149A) variant. Type of assay: cell-based. The settings on record: N149A substitution; for IC50: iodide uptake. As to the method: HEK293S cell lines, cultured in 293 Freestyle medium (Life Technologies; plus 10% fetal bovine serum), stably expressing hNCC and its variants were generated following published protocols. Cells were transfected using Lipofectamine 3000 (Invitrogen) with a pSBbi-RP-based plasmid containing hNCC or its variants and the SB100X vector. Puromycin (2 μg/mL; Gemini Bio-Products) was used for selection of stable cell lines.
To prepare for the uptake experiment, cells were plated at 0.5 × 10^6 cells/well in 24-well plates one day in advance. To activate NCC, cells were treated with a chloride-free hypotonic solution composed of 67.5 mM sodium-, 2.5 mM potassium-, 0.25 mM magnesium-, and 0.25 mM calcium-gluconate, as well as 7.5 mM HEPES pH 7.4 (buffered using Tris) at 37 °C for 10 min[72]. After the activation step, the experiments were carried out at room temperature. Ten minutes before the start of ^125I^− uptake, 70 μM Bumetanide (Thermo Scientific Chemicals) and 100 μM 4,4′-diisothiocyanatostilbene-2,2′-disulfonic acid (DIDS; Sigma) were added to suppress background iodide uptake activity. Indicated thiazide diuretics were also added to the indicated concentrations 10 min before the start of ^125I^− uptake. The original buffer was switched to an uptake buffer composed of 135 mM Na-gluconate, 5 mM K-gluconate, 1 mM Mg-gluconate, 1 mM Ca-gluconate, 70 μM bumetanide, 100 μM DIDS, 1 mM NaI, 0.25 μCi/ml Na^125I (American Radiolabeled Chemicals, Inc.), and 15 mM HEPES pH 7.4 (buffered using Tris), in the presence or absence of thiazide diuretics to initiate ^125I^− uptake. The ^125I^− uptake process lasted 1 h and was stopped by two rapid washes using ice-cold 110 mM MgCl2. Cells lysed using 1% sodium dodecyl sulfate (SDS) were analyzed by scintillation counting.
To calculate the fold change of the half-maximal inhibitory concentration (IC50) between hNCC(WT) and different hNCC variants, individual dose-response curves were normalized first using the smallest mean and the value of the lowest concentration as 0% and 100%, respectively. The normalized data were then fitted using the “EC50 shift” nonlinear regression in GraphPad Prism 10 with the shared EC50Control assigned to be the IC50 of hNCC(WT). The following constraints were used in the EC50 shift analysis. The EC50Control was set to be shared across all curves under analysis and constrained to be greater than 0. The EC50Ratio was constrained to be greater than 0. The bottom, top, and HillSlope were constrained to be 0, 100, and −1, respectively. For Fig. 1f, g and Supplementary Fig. 2d, GraphPad Prism 10 was used to perform curve fitting and IC50 calculation for normalized data using y = 100/(1 + (x/IC50)).

A word on the IC50: it is the point on the concentration scale where inhibition reaches its midpoint. A high value points to weaker potency. `NS(=O)(=O)c1cc(C2(O)NC(=O)c3ccccc32)ccc1Cl` (stereo not shown) [chlorthalidone]: the “fold less sensitive than hNCC(WT)” value is given as ~95 fold and the IC50 was 2200 nM.

In the case of `CC1Cc2ccccc2N1NC(=O)c1ccc(Cl)c(S(N)(=O)=O)c1` (stereo not shown) [indapamide], the “fold less sensitive than hNCC(WT)” value is listed as “approximately 27 fold” and the IC50 came out at 340 nM.
